Assay results taken from US11219625B2, “Inhibitors of N-linked glycosylation and methods using same” (YALE UNIVERSITY, priority 2015, dated 2022).

Tests used:
Type in all cases: cell-based
HCC827 cells = experiment: MTT proliferation assay, HCC827; conditions: HCC827, 10 μM NGI-1, 5 d, p<0.05
Experimental: (§1) FIGS. 7A-7D illustrate EGFR kinase domain mutant cell lines growth inhibition and cell cycle arrest response to NGI-1. FIG. 7A illustrates MTT assays to determine the effects of NGI-1 on growth of H3255 cells. FIG. 7B illustrates MIT assays to determine the effects of NGI-1 on growth of HCC827 cells. EGFR kinase domain mutant cell lines H3255 and HCC827 cells were untreated or treated with 10 μM NGI-1 for 5 d. […] FIG. 7C illustrates cell cycle distribution of H3255 after 24 h NGI-1 treatment for 24 h determined by flow cytometry. FIG. 7D illustrates cell cycle distribution of HCC827 after 24 h NGI-1 treatment for 24 h determined by flow cytometry.
(§2) Growth rates were determined by CellTiter 96 NonRadioactive Cell Proliferation Assay (Promega; Madison, Wis. USA) according to the manufacturer's directions. Briefly, NSCLC cells (2×10^3) untreated or treated with 101M NGI-1 or 1 μM Tn, were seeded in triplicates in 96-wells plates and grown in culture medium containing 10%. Cell numbers were estimated after 0, 3, and 5 days by adding MTT [(3-(4,5-Dimethylthiazol-2-yl)-2,5-diphenyltetrazolium bromide] reagent to the wells 4 hours before taking the spectrophotometric reading (absorbance at 570 nm).

H3255 cells [1] = experiment: Cell cycle distribution by flow cytometry, H3255; conditions: H3255, NGI-1 24 h, p<0.05
Experimental: as §1
For the assessment of cell cycle distribution, 1×10^6 cells were collected, washed once with ice-cold PBS and fixed in ice-cold 70% ethanol overnight at −20° C. Thereafter, cells were washed twice with PBS and incubated for 30 min at room temperature in 200 μL of Guava Cell Cycle Reagent (Guava Technologies). Cytofluorometric acquisitions were performed on a LSRII cytometer (BD Biosciences). First-line analysis was performed with Flow Jo software, upon gating on the events characterized by normal forward and side scatter parameters and discrimination of doublets in a FSC-A vs. FSC-H bivariate plot. Approximately 30,000 cells were analyzed per experiment, and the mean value was obtained from 3 independent assays.

H3255 cells [2] = experiment: MTT proliferation assay, H3255; conditions: H3255, 10 μM NGI-1, 5 d, p<0.05
Experimental: as §1, §2

PC9 cells [3] = experiment: Cell cycle distribution by flow cytometry, PC9; conditions: PC9, NGI-1 24 h; control 65%; p<0.01
Experimental: FIGS. 5A-5G illustrate NGI-1 induces G1 arrest and senescence in EGFR addicted tumor cells. FIG. 5A illustrates cell cycle distribution of PC9 cells after 24 h NGI-1 treatment for 24 h determined by flow cytometry. […] FIG. 5B illustrates cell cycle distribution of A549 cells after 24 h NGI-1 treatment for 24 h determined by flow cytometry. FIG. 5C illustrates western blot time course of cyclin D1 expression in PC9 and A549 cells after NGI-1 treatment. FIG. 5D illustrates quantitative real-time PCR analysis of PC9 and A549 cells. A time course of cyclin D1 expression levels relative to GAPDH is represented. […] FIG. 5F illustrates senescence of PC9 cells explored by: cell autofluorescence, measured by flow cytometry using a detector for PE/YFP; lipofuscin accumulation, detected by confocal laser scanning microscopy using an excitation laser of 405 nm with acquired signals from spectrums of yellow 575-620 nm; and morphology changes, enlarged vs. flattened. […] Significance was calculated using a T test (*p<0.05. **p<0.01). FIG. 5G illustrates senescence of A549 cells explored by: cell autofluorescence, measured by flow cytometry using a detector for PE/YFP; lipofuscin accumulation, detected by confocal laser scanning microscopy using an excitation laser of 405 nm with acquired signals from spectrums of yellow 575-620 nm; and morphology changes, enlarged vs. flattened. […]

PC9 cells [4] = experiment: MTT proliferation assay, PC9; conditions: PC9, 10 μM NGI-1, after 3 days, p<0.001
Experimental: FIGS. 4A-4H illustrate the finding that NGI-1 blocks RTK driven proliferation. FIG. 4A illustrates western blot analysis of EGFR phosphorylation (Y1173) and gel mobility in PC9 (EGFR-mutant) and A549 (k-ras mutant) NSCLC cells after 10 μM NGI-1 treatment for 24 h. […] Actin expression was used as a control for protein loading. FIG. 4B illustrates MTT assays results of PC9 following treatment with 10 μM NGI-1 or 1 μM tunicamycin for a total of 5 d. Relative proliferation id reported in fold increase from day 0. FIG. 4C illustrates MTT assays results of A549 following treatment with 10 μM NGI-1 or 1 μM tunicamycin for a total of 5 d. Relative proliferation id reported in fold increase from day 0. FIG. 4D illustrates protein phosphorylation profiles of PC9 cells analyzed by phospho-protein array to assess the response of PC9 to 10 μM NGI-1 for 24 h. FIG. 4E illustrates protein phosphorylation profiles of A549 cells analyzed by phospho-protein array to assess the response of A549 to 10 μM NGI-1 for 24 h. […]
as §2, with “Briefly, NSCLC cells (2×10^3) untreated or treated with 101M NGI-1 or 1 μM Tn, were seeded in triplicates in 96-wells plates and grown in culture medium containing 10%.” left out

Cc1cnc(NC(=O)c2cc(S(=O)(=O)N(C)C)ccc2N2CCCC2)s1 [NGI-1, 5-(N,N-Dimethylsulfamoyl)-N-(5-methylthiazol-2-yl)-2-(pyrrolidin-1-yl)benzamide]
reduction of proliferation, MTT (HCC827 cells): > 45%
cell cycle distribution (H3255 cells [1]): undergo G1 arrest
reduction of proliferation, MTT (H3255 cells [2]): > 45%
cells in G1 (PC9 cells [3]): 90%
reduction of cell proliferation, MTT (PC9 cells [4]): more than 90%
